One assay has as its system Fusarium graminearum. In words: microbe, parasite or virus in culture. It counts as cell-based.
In a further assay the test system is Phaeosphaeria nodorum. The assay is described as follows: In vitro antimicrobial activity test, colony diameter on PDA plate, Phaeosphaeria nodorum.
For another assay, the system named is Penicilium italicum. In words: In vitro antimicrobial activity test, colony diameter on PDA plate, Penicilium italicum.
The subject of the next assay is Septoria tritici. The assay is described as follows: In vitro antimicrobial activity test, colony diameter on PDA plate, Septoria tritici. The following applies: for Fungal growth inhibition rate (%) Measured value: 25° C., 14 days.
For a further assay, the system named is Microdochium nivale. In words: In vitro antimicrobial activity test, colony diameter on PDA plate, Microdochium nivale.
Where [1] appears, read: Fusarium graminearum, 72 h, read-out: Fungal growth inhibition rate (%) Measured value.
The mark [2] stands for this setting: Parastagonospora nodorum, 168 h, read-out: Fungal growth inhibition rate (%) Measured value.
The mark [3] stands for this setting: 72 h, read-out: Fungal growth inhibition rate (%) Measured value.
The mark [4] stands for this setting: Zymoseptoria tritici, 336 h, read-out: Fungal growth inhibition rate (%) Measured value.
[5] abbreviates: Microdochium nivale, 72 h, read-out: Fungal growth inhibition rate (%) Measured value.

Consider `Fc1ccc([C@]2(Cn3cncn3)O[C@H]2c2ccccc2Cl)cc1` (racemic) [Epoxiconazole, epoxiconazole], for which, in the assay on Fusarium graminearum (setting [1]), the inhibition (commonly how much of the control response was suppressed) at 0.01 ppm is 22%, the inhibition at 0.04 ppm was determined as 27%, the inhibition at 0.16 ppm is 39% and the inhibition at 0.63 ppm stood at 57%. In addition, the inhibition at 2.5 ppm in the assay on Fusarium graminearum (setting [1]) was found to be 88%.

In the case of `CC(C)C1CCC(Cc2ccc(Cl)cc2)C1(O)Cn1cncn1` (stereo not drawn) [Ipconazole, ipconazole], in the assay with Phaeosphaeria nodorum (setting [2]), the inhibition at 0.01 ppm was 20%, the inhibition at 0.04 ppm turned out to be 31%, the inhibition at 0.16 ppm worked out at 62% and the inhibition at 0.63 ppm worked out at 76%.

Take `CC(C)(C)C(O)(CCc1ccc(Cl)cc1)Cn1cncn1` (stereo not drawn) [Tebuconazole, tebuconazole]: in the assay on Penicilium italicum (setting [3]), the inhibition at 0.04 ppm was determined as 3%, the inhibition at 0.16 ppm is 30%, the inhibition at 0.63 ppm turned out to be 68% and the inhibition at 2.5 ppm was determined as 87%. Besides, the inhibition at 10 ppm with Penicilium italicum (setting [3]) worked out at 100%.

For `CC1(C)CCC(Cc2ccc(Cl)cc2)C1(O)Cn1cncn1` (stereo not drawn) [Metconazole, metconazole], in the assay with Septoria tritici (setting [4]), the inhibition at 0.01 ppm is 0%, the inhibition at 0.039 ppm was 0%, the inhibition at 0.156 ppm came out at 11% and the inhibition at 0.625 ppm was determined as 56%. Besides, the inhibition at 2.5 ppm with Septoria tritici (setting [4]) amounted to 98%.

As for `CC(Cc1ccc(C(C)(C)C)cc1)CN1C[C@@H](C)O[C@@H](C)C1` (stereo partly drawn) [Fenpropimorph, fenpropimorph], in the assay on Septoria tritici (setting [4]), the inhibition at 0.04 ppm worked out at 16%, the inhibition at 0.16 ppm was 21%, the inhibition at 0.63 ppm worked out at 23% and the inhibition at 2.5 ppm is 42%. In the assay with Septoria tritici (setting [4]), the inhibition at 10 ppm turned out to be 45%.

Take `CC(Cc1ccc(C(C)(C)C)cc1)CN1CCCCC1` (stereo not drawn) [Fenpropidine, fenpropidine]: the “Fungal growth inhibition rate (%) Measured value” was 0% in the assay on Septoria tritici (Test Example 8, fenpropidine 0.04 ppm alone); 0% in the assay on Septoria tritici (Test Example 8, fenpropidine 0.16 ppm alone); 40% with Septoria tritici (Test Example 8, fenpropidine 0.63 ppm alone); 38% in the assay on Septoria tritici (Test Example 8, fenpropidine 2.50 ppm alone); 40% with Septoria tritici (Test Example 8, fenpropidine 10.00 ppm alone).

On to `OC(Cc1ccccc1Cl)(Cn1nc[nH]c1=S)C1(Cl)CC1` (stereo not drawn) [Prothioconazole, prothioconazole], for which, in the assay with Septoria tritici (setting [4]), the inhibition at 0.01 ppm was 0%, the inhibition at 0.039 ppm was 10%, the inhibition at 0.156 ppm worked out at 21% and the inhibition at 0.625 ppm was 51%. Also, the inhibition at 2.5 ppm in the assay on Septoria tritici (setting [4]) was found to be 100%.

Turning to `CCCC1COC(Cn2cncn2)(c2ccc(Cl)cc2Cl)O1` (stereo not drawn) [Propiconazole, propiconazole], in the assay on Microdochium nivale (setting [5]), the inhibition at 0.156 ppm is 0%, the inhibition at 0.625 ppm was 45% and the inhibition at 2.5 ppm is 76%.

`COC(=O)C1(C)CCC(Cc2ccc(Cl)cc2)C1(O)Cn1cncn1` (stereo not drawn) [Compound (1), methyl 3-(4-chlorobenzyl)-2-hydroxy-1-methyl-2-(1H-1,2,4-triazole-1-ylmethyl)cyclopentane carbonate]: the “Fungal growth inhibition rate (%) Measured value” is recorded as 26% in the assay on Microdochium nivale (Test Example 4, compound (1) 0.313 ppm alone, 25° C., 3 days); 83% in the assay with Penicilium italicum (Test Example 5, compound (1) 1.25 ppm alone, 25° C., 3 days); 35% with Septoria tritici (Test Example 1, compound (1) 0.005 ppm alone); 3% in the assay with Septoria tritici (Test Example 2, compound (1) 0.02 ppm alone); 70% in the assay with Septoria tritici (Test Example 7, compound (1) 1.25 ppm alone); 77% in the assay on Septoria tritici (Test Example 8, compound (1) 1.25 ppm alone). Besides, the “Fungal growth inhibition rate (%) Measured value” with Phaeosphaeria nodorum (Test Example 6, compound (1) 1.25 ppm alone, 25° C., seven days) is listed as 89%; with Fusarium graminearum (Test Example 3, compound (1) 1.25 ppm alone, 25° C., 3 days), 93%.

For the origin of these results see patent publication US9750255B2, “Agricultural or horticultural chemical, method of controlling plant diseases, and product for controlling plant diseases” (Kureha Corporation, priority 2013, dated 2017).
